By EC50 is commonly meant the midpoint of the concentration-response curve. Read a high EC50 as a less potent agent.

Ki and EC50 data for 20 molecules are collected here from patent US11318137B2, “Quinazoline compounds as modulators of Ras signaling” (VANDERBILT UNIVERSITY, priority 2017, dated 2022).

The target in one assay is T1, Son of Sevenless (SOS) (Homo sapiens, UniProt Q07889).
T1 sequence (Q07889 564-1049 limits assumed): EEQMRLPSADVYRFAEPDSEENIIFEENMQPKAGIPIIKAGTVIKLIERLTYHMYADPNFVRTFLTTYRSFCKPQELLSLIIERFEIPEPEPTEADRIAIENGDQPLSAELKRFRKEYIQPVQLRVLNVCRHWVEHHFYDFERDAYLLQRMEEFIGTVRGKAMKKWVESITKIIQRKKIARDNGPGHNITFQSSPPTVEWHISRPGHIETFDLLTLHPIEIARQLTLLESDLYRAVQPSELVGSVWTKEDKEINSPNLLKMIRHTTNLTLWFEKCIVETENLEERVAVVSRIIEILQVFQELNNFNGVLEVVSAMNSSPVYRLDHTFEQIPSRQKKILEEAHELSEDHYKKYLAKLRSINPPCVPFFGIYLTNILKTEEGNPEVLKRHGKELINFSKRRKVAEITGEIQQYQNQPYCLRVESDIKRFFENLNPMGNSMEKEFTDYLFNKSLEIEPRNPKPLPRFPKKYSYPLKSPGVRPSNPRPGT
Kind of assay: Binding to SOS, fluorescence polarization anisotropy (FPA) displacement of FITC-conjugated probe. The note with it: binding affinity calculated from IC50 of FITC-probe displacement, read-out: Binding affinities (binding affinity to SOS). The protocol:
Compounds of the present invention were tested for their ability to the Ras guanine exchange factor (GEF) Son of Sevenless (SOS). Binding to SOS was measured using a Fluorescence polarization anisotropy (FPA) assay that assesses the ability of a test compound to displace a fluorescent FITC-conjugated compound. Briefly, the labeled probe compound is incubated with SOS in buffer. Changes in anisotropy indicative of displacement of the labeled probe for a test compound are assessed over a dose range of test compound. Data was analyzed by plotting fluorescence anisotropy values as a function of compound concentration. IC50 values were determined using a four-parameter dose-response (variable slope) and binding affinities were calculated from this IC50 value. This assay is performed in a method analogous to the assay disclosed in: Burns, M. C.; Sun, Q.; Daniels, R. N.; Camper, D. V.; Kennedy, J. P.; Phan, J.; Olejniczak, E. O.; Lee, T.; Waterson, A. G.; Rossanese, O. W.; Fesik, S. W. “Approach for targeting Ras with small molecules that activate SOS-mediated nucleotide exchange” Proc. Natl. Acad. Sci. 2014; 11(9): 3401-3406. PMCID: PMC3948241.

The target of assay [1] is T2, SOS-mediated nucleotide exchange on Ras (Homo sapiens, UniProt Q07889).
T2 sequence (Q07889 1-1333): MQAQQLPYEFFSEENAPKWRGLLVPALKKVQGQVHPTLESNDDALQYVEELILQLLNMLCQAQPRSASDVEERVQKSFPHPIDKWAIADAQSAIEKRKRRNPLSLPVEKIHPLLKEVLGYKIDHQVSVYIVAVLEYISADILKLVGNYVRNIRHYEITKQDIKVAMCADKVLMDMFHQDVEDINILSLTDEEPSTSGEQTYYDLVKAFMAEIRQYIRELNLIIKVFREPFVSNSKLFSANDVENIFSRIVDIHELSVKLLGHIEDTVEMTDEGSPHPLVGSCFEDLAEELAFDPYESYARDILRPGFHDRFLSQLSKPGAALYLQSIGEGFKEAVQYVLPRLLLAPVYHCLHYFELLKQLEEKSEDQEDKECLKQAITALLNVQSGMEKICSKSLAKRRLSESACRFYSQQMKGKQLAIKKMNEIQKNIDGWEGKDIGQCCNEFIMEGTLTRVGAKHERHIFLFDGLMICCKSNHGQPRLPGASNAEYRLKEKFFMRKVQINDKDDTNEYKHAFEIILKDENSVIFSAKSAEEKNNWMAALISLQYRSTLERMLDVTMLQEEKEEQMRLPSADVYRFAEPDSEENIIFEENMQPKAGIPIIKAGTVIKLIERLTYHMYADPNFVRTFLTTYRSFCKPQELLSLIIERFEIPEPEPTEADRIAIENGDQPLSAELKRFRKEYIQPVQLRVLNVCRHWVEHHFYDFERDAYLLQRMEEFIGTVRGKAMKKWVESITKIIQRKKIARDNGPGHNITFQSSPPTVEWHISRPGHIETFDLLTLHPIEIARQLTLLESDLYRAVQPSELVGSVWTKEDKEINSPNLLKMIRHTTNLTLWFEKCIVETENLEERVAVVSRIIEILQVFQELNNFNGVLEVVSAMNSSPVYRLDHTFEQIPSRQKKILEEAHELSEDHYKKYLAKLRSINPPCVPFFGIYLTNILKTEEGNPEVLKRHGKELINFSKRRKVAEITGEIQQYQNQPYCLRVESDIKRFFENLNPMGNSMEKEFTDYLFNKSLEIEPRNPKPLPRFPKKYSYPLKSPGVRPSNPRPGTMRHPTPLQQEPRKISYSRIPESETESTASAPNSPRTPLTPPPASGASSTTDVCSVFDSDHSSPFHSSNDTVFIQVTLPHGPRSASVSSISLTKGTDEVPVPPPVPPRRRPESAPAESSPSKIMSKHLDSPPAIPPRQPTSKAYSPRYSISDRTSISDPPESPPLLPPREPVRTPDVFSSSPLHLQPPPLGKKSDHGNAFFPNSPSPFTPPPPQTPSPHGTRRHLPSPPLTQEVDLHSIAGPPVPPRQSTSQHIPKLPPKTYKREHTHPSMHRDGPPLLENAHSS
Kind of assay: SOS-mediated nucleotide exchange on Ras (BODIPY-GDP fluorescence). It is filed as biochemical. The note with it: Ras loaded with BODIPY-GDP, GTP and SOS added; EC50 from derived exchange rates. Here is the method: A. SOS-Mediated Nucleotide Exchange on Ras
Compounds of the present invention were tested for their ability to modify the rate at which Ras exchanges a labeled nucleotide guanosine diphosphate (GDP) analog for guanosine triphosphate (GTP). Briefly, test compounds, then GTP and the Ras GEF SOS (Son of Sevenless) are added to a buffered solution containing Ras protein loaded with BODIPY-GDP. Changes in fluorescence indicating exchange of the labeled GDP for GTP are monitored over time. Raw fluorescence data was fit to a single exponential decay function and derived rates were plotted as mean values. EC50 values were calculated by plotting mean derived rates as a function of compound concentration and fit using a four-parameter dose-response curve. Full assay details are disclosed in: Burns, M. C.; Sun, Q.; Daniels, R. N.; Camper, D. V.; Kennedy, J. P.; Phan, J.; Olejniczak, E. O.; Lee, T.; Waterson, A. G.; Rossanese, O. W.; Fesik, S. W. “Approach for targeting Ras with small molecules that activate SOS-mediated nucleotide exchange” Proc. Natl. Acad. Sci. 2014; 11(9): 3401-3406. PMCID: PMC3948241.

With `CCC(Nc1nc(Nc2ccc(F)c(Cl)c2)nc2ccccc12)C(C)C` (stereo not shown) [Example 2, N^2-(3-chloro-4-fluorophenyl)-N^4-(2-methylpentan-3-yl)quinazoline-2,4-diamine], the Ki at Son of Sevenless (SOS) was more than 5 µM. In assay [1], the EC50 fell in the range of 1 to 5 µM.
The matching figures for `C[C@@H](Nc1nc(NCC2CCCC2)nc2ccccc12)C1CC1` [Example 3, (R)—N^2-(cyclopentylmethyl)-N^4-(1-cyclopropylethyl)quinazoline-2,4-diamine]: more than 5 µM and 1 to 5 µM.
The matching figures for `C[C@@H](Nc1nc(NCC2CCCCC2)nc2ccccc12)C1CC1` [Example 4, (R)—N^2-(cyclohexylmethyl)-N^4-(1-cyclopropylethyl)quinazoline-2,4-diamine]: more than 5 µM and 1 to 5 µM.
The corresponding values for `Clc1cc(Cl)cc(Nc2nc(NCc3cccs3)c3ccccc3n2)c1` [Example 9, N^2-(3,5-dichlorophenyl)-N^4-(thiophen-2-ylmethyl)quinazoline-2,4-diamine] are more than 5 µM and less than 1 µM.
As for `Fc1ccc(CNc2nc(NCc3ccco3)c3ccccc3n2)cc1` [Example 14, N^2-(4-fluorobenzyl)-N^4-(furan-2-ylmethyl)quinazoline-2,4-diamine], the Ki on Son of Sevenless (SOS) was more than 5 µM. This molecule came in with an EC50 in assay [1] of 1 to 5 µM.
The matching figures for `C[C@@H](Nc1nc(NCc2ccc(F)cc2F)nc2ccccc12)C1CC1` [Example 19, (R)—N^4-(1-cyclopropylethyl)-N^2-(2,4-difluorobenzyl)quinazoline-2,4-diamine]: more than 5 µM and 5 to 30 µM.
The corresponding values for `Fc1ccc(Nc2nc(NC(C3CC3)C3CC3)c3ccccc3n2)cc1Cl` [Example 21, N^2-(3-chloro-4-fluorophenyl)-N^4-(dicyclopropylmethyl)quinazoline-2,4-diamine] are more than 5 µM and 1 to 5 µM.
The matching figures for `C[C@@H](Nc1nc(Nc2cc(F)cc(C#N)c2)nc2ccccc12)C1CC1` [Example 23, (R)-3-((4-((1-cyclopropylethyl)amino)quinazolin-2-yl)amino)-5-fluorobenzonitrile]: more than 5 µM and 1 to 5 µM.
Take `Cc1cc(CNc2nc(N[C@H](C)C3CC3)c3ccccc3n2)ccc1F` [Example 24, (R)—N^4-(1-cyclopropylethyl)-N^2-(4-fluoro-3-methylbenzyl)quinazoline-2,4-diamine]: on Son of Sevenless (SOS), the Ki was more than 5 µM. This molecule returned an EC50 in assay [1] of 1 to 5 µM.
The matching figures for `COc1cccc(CNc2nc(N[C@H](C)C3CC3)c3ccccc3n2)c1` [Example 27, (R)—N^4-(1-cyclopropylethyl)-N^2-(3-methoxybenzyl)quinazoline-2,4-diamine]: more than 5 µM and 5 to 30 µM.
The corresponding values for `Clc1ccc(Nc2nc(NCc3ccco3)c3ccccc3n2)cc1Cl` [Example 32, N^2-(3,4-dichlorophenyl)-N^4-(furan-2-ylmethyl)quinazoline-2,4-diamine] are more than 5 µM and 1 to 5 µM.
The corresponding values for `CC[C@@H](Nc1nc(Nc2ccc(F)c(Cl)c2)nc2ccccc12)C1CC1` [Example 34, (R)—N^2-(3-chloro-4-fluorophenyl)-N^4-(1-cyclopropylpropyl)quinazoline-2,4-diamine] are more than 5 µM and 5 to 30 µM.
In the case of `CC[C@@H](Nc1nc(Nc2cc(F)cc(F)c2)nc2ccccc12)C1CC1` [Example 35, (R)—N^4-(1-cyclopropylpropyl)-N^2-(3,5-difluorophenyl)quinazoline-2,4-diamine], the Ki at Son of Sevenless (SOS) is more than 5 µM. The molecule also showed an EC50 in assay [1] of 1 to 5 µM.
The matching figures for `CCC[C@@H](Nc1nc(Nc2ccc(F)c(Cl)c2)nc2ccccc12)C1CC1` [Example 36, (R)—N^2-(3-chloro-4-fluorophenyl)-N^4-(1-cyclopropylbutyl)quinazoline-2,4-diamine]: more than 5 µM and 1 to 5 µM.
The matching figures for `C[C@@H](Nc1nc(Nc2ccc(F)c(Cl)c2)nc2ccccc12)c1cccs1` [Example 37, (R)—N^2-(3-chloro-4-fluorophenyl)-N^4-(1-(thiophen-2-yl)ethyl)quinazoline-2,4-diamine]: more than 5 µM and 1 to 5 µM.
The corresponding values for `C[C@@H](Nc1nc(Nc2cc(F)cc(F)c2)nc2ccccc12)c1cccs1` [Example 38, (R)—N^2-(3,5-difluorophenyl)-N^4-(1-(thiophen-2-yl)ethyl)quinazoline-2,4-diamine] are more than 5 µM and 1 to 5 µM.
`C[C@@H](Nc1nc(Nc2ccc(F)c(Cl)c2)nc2ccccc12)C(C)(C)C` [Example 40, (R)—N^2-(3-chloro-4-fluorophenyl)-N^4-(3,3-dimethylbutan-2-yl)quinazoline-2,4-diamine]: at Son of Sevenless (SOS), the Ki is more than 5 µM. The EC50 in assay [1] was 1 to 5 µM.
Consider `C[C@@H](Nc1nc(NCC2CCCCC2)nc2c(CN)cccc12)c1cccs1` [Example 96, (R)-8-(aminomethyl)-N^2-(cyclohexylmethyl)-N^4-(1-(thiophen-2-yl)ethyl)quinazoline-2,4-diamine], for which, in assay [1], the EC50 is 1 to 5 µM.
Same read-out and setting: to `CCC(CC)CNc1nc(Nc2ccc(F)c(Cl)c2)nc2c(C#N)cccc12` [Example 99, 2-((3-chloro-4-fluorophenyl)amino)-4-((2-ethylbutyl)amino)quinazoline-8-carbonitrile] belongs 1 to 5 µM; to `C[C@@H](Nc1nc(NCc2cccc(Cl)c2F)nc2c(C3=CCNCC3)cccc12)C(C)(C)C` [Example 129, (R)—N^2-(3-chloro-2-fluorobenzyl)-N^4-(3,3-dimethylbutan-2-yl)-8-(1,2,3,6-tetrahydropyridin-4-yl)quinazoline-2,4-diamine], 5 to 30 µM.
